Data on four molecules can be found in ChEMBL document CHEMBL2321708, “Modulators of the GPR119 Receptor for the Treatment of Metabolic Syndrome” (ACS Med Chem Lett, 2013).

For orientation: EC50 means the concentration giving half of the maximal effect.

What all share (type): functional
For assay [1], the target named is T1, Glucose-dependent insulinotropic receptor (Homo sapiens, UniProt Q8TDV5).
T1 sequence (Q8TDV5 whole entry): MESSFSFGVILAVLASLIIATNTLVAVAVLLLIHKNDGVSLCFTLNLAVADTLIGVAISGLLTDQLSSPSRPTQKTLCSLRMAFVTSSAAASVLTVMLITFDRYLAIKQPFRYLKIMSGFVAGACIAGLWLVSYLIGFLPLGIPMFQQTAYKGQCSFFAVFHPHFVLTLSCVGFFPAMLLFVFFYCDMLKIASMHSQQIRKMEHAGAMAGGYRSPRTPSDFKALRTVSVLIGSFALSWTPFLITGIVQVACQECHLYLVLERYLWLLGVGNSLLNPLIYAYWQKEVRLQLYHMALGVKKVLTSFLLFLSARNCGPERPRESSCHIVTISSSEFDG
Put plainly: Agonist activity at human GPR119 by HTRF cAMP assay. In general terms: In TR-FRET formats the signal depends on donor and acceptor labels being close together.

A short description of assay [2]: Effect on glucose homeostasis in diabetes model (unknown origin) assessed as release of GIP at 3 mg/kg, […] measured 40 mins post glucose challenge.
Assay [3] in a line: Effect on glucose homeostasis in diabetes model (unknown origin) assessed as release of GIP at 3 mg/kg, […] measured 20 mins post glucose challenge.
The test system of assay [4] is unidentified. Briefly: Effect on glucose homeostasis in diabetes model (unknown origin) assessed as release of GIP at 30 mg/kg, […] measured 20 mins post glucose challenge.
Assay [5] relates to unidentified. Put plainly: Effect on glucose homeostasis in diabetes model (unknown origin) assessed as release of GIP at 30 mg/kg, […] measured 40 mins post glucose challenge.
Assay [6] relates to unidentified. Put plainly: Effect on glucose homeostasis in diabetes model (unknown origin) assessed as release of GIP at 30 mg/kg, po administered intratracheally measured 30 mins before glucose challenge.
The nature of assay [7]: Effect on glucose homeostasis in diabetes model (unknown origin) assessed as release of GIP at 3 mg/kg, […] measured 30 mins before glucose challenge.
A short description of assay [8]: Effect on glucose homeostasis in diabetes model (unknown origin) assessed as release of GIP at 3 mg/kg, […] measured 120 mins post glucose challenge.
Assay [9] in a line: Effect on glucose homeostasis in diabetes model (unknown origin) assessed as release of GIP at 3 mg/kg, […] measured 60 mins post glucose challenge.
The test system of assay [10] is unidentified. Briefly: Effect on glucose homeostasis in diabetes model (unknown origin) assessed as release of GIP at 30 mg/kg, […] measured 60 mins post glucose challenge.
Assay [11] has as its system unidentified. Briefly: Effect on glucose homeostasis in diabetes model (unknown origin) assessed as release of GIP at 30 mg/kg, po administered intratracheally measured 120 mins post glucose challenge.

As to `CC(C)(C)OC(=O)N1CCC(CO[C@H]2CC[C@H](c3cnc(S(C)(=O)=O)cn3)CC2)CC1`, the midpoint of the response in assay [1], the EC50, lay at 707 nM.
For `CC(C)c1noc(N2CCC(CO[C@H]3CC[C@H](c4ccc(S(C)(=O)=O)cc4F)CC3)CC2)n1`, the EC50 in [1] is 38 nM. Against the preceding molecule, the EC50 is about 19-fold lower.
The molecule `CC(C)(F)c1noc(N2CCC(COC3CC=C(c4ccc(S(C)(=O)=O)cc4)CC3)CC2)n1` (stereo not drawn) came in with an EC50 in assay [1] of 15 nM.
For `CCc1cnc(N2CCC(CO[C@H]3CC[C@H](c4ccc(S(C)(=O)=O)cc4F)CC3)CC2)nc1`, the Activity was 250.2% in assay [2]; 201.3% in assay [3]; 163.5% in the assay with unidentified [4]; 204.2% with unidentified [5]; 72.2% with unidentified [6]; 88.7% in assay [7]. The Activity was 163.3% in [8], 262.8% in [9], 193.2% with unidentified [10] and 107.5% with unidentified [11].
